± gives the expanded uncertainty stated by the source.
Assays:
[1] = 298.15 K; 101.33 kPa; Liquid; Vibrating tube method
[2] = refractive index (Na D-line) (dimensionless); conditions: 298.15 K; 101.33 kPa; Liquid; Standard Abbe refractometry

mass density [1]: 1219.61 ± 0.41 kg/m3
refractive index [2]: 1.50591 ± 0.00038
Compound: CCOS(=O)(=O)[O-].CC[n+]1cccc(C)c1 [1-ethyl-3-methylpyridinium ethylsulfate]

From the NIST ThermoML archive (doi:10.1016/j.fluid.2010.05.009)
